Assays:
chickweed = experiment: Test Example 5: herbicidal effect by foliage application, plastic box (Table 20, symbol P); assay type: in vivo, common chickweed (Stellaria media); conditions: amount of applied herbicide 320 g/ha; foliage application after 14-day growth; evaluated three weeks after application
How it was run: (§1)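 Post-emergence foliar test in sterilized diluvial soil. Compound applied as water-diluted emulsion at a predetermined rate to 14-day-old plants; evaluation at three weeks.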

barnyard grass = experiment: Test Example 5: herbicidal effect by foliage application, plastic box (Table 20, symbol H); assay type: in vivo, barnyard grass (Echinochloa crus-galli); conditions: amount of applied herbicide 320 g/ha; foliage application after 14-day growth; evaluated three weeks after application
How it was run: as §1

Italian ryegrass [1] = experiment: Test Example 4: herbicidal effect by soil treatment (Table 19, symbol K); assay type: in vivo, Italian ryegrass (Lolium multiflorum); conditions: amount of applied herbicide 320 g/ha
How it was run: (§2)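 Emulsion of test compound, water-diluted to predetermined amount, sprayed on soil after sowing (seed depth ~1.5 cm, sterilized diluvial soil). Greenhouse, 25–30° C. Effect graded at three weeks post-spray.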

velvetleaf [2] = experiment: Test Example 5: herbicidal effect by foliage application, plastic box (Table 20, symbol M); assay type: in vivo, velvetleaf (Abutilon theophrasti); conditions: amount of applied herbicide 320 g/ha; foliage application after 14-day growth; evaluated three weeks after application
How it was run: as §1

wild oat = experiment: Test Example 4: herbicidal effect by soil treatment (Table 19, symbol I); assay type: in vivo, wild oat (Avena fatua); conditions: amount of applied herbicide 320 g/ha
How it was run: as §2

Italian ryegrass [3] = experiment: Test Example 5: herbicidal effect by foliage application, plastic box (Table 20, symbol K); assay type: in vivo, Italian ryegrass (Lolium multiflorum); conditions: amount of applied herbicide 320 g/ha; foliage application after 14-day growth; evaluated three weeks after application
How it was run: as §1

persian speedwell = experiment: Test Example 4: herbicidal effect by soil treatment (Table 19, symbol R); assay type: in vivo, Persian speedwell (Veronica persica); conditions: amount of applied herbicide 320 g/ha
How it was run: as §2

green foxtail = experiment: Test Example 4: herbicidal effect by soil treatment (Table 19, symbol G); assay type: in vivo, green foxtail (Setaria viridis); conditions: amount of applied herbicide 320 g/ha
How it was run: as §2

Japanese bulrush = experiment: Test Example 2: herbicidal activity, application during weed generation under submerged conditions (Table 17, symbol B); assay type: in vivo, Japanese bulrush (Schoenoplectus juncoides); conditions: AAH 320 g/ha; application during weed generation, submerged conditions
How it was run: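 Wagner pot, alluvial soil, 4 cm flood; mixed sowing of all species; greenhouse 25° C.–30° C. Emulsifiable formulation, water-diluted to predetermined dose, applied to paddy water at 1–2 leaf stage. Effect rated at 3 wk using the earlier test's scoring criteria.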

rice flat sedge = experiment: Test Example 3: herbicidal effect by foliage application, Wagner pot (Table 18, symbol E); assay type: in vivo, rice flat sedge (Cyperus iria); conditions: 320 g/ha
How it was run: (§3)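 Plants were sown in alluvial soil held under 0.1–0.5 cm standing water and grown 14 days in a greenhouse at 25–30 °C. An emulsifiable formulation, water-diluted to the set dose, was then sprayed onto the foliage, and effects were scored three weeks later using previously defined criteria.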

redroot pigweed = experiment: Test Example 4: herbicidal effect by soil treatment (Table 19, symbol N); assay type: in vivo, redroot pigweed (Amaranthus retroflexus); conditions: amount of applied herbicide 320 g/ha
How it was run: as §2

oval-leafed pondweed = experiment: Test Example 1: herbicidal activity, application before weed generation under submerged conditions (Table 16, symbol C); assay type: in vivo, oval-leafed pondweed (Monochoria vaginalis); conditions: amount of applied herbicide 320 g/ha
How it was run: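 Emulsion formulation, water-diluted to set dose, was put onto the flooded surface (4 cm depth, alluvial soil) the same day weeds were sown and 2.5-leaf rice transplanted. After 3 weeks at 25-30 °C under glass, each species was rated 0 (≤5% kill) to 5 (≥90% kill).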

Chinese sprangletop = experiment: Test Example 3: herbicidal effect by foliage application, Wagner pot (Table 18, symbol D); assay type: in vivo, chinese sprangletop (Leptochloa chinensis); conditions: 320 g/ha
How it was run: as §3

windgrass = experiment: Test Example 4: herbicidal effect by soil treatment (Table 19, symbol L); assay type: in vivo, windgrass (Apera spica-venti); conditions: amount of applied herbicide 320 g/ha
How it was run: as §2

blackgrass = experiment: Test Example 5: herbicidal effect by foliage application, plastic box (Table 20, symbol J); assay type: in vivo, blackgrass (Alopecurus myosuroides); conditions: amount of applied herbicide 320 g/ha; foliage application after 14-day growth; evaluated three weeks after application
How it was run: as §1

velvetleaf [4] = experiment: Test Example 4: herbicidal effect by soil treatment (Table 19, symbol M); assay type: in vivo, velvetleaf (Abutilon theophrasti); conditions: amount of applied herbicide 320 g/ha
How it was run: as §2

lambsquarters = experiment: Test Example 4: herbicidal effect by soil treatment (Table 19, symbol O); assay type: in vivo, lambsquarters (Chenopodium album); conditions: amount of applied herbicide 320 g/ha
How it was run: as §2

Row | SMILES | Herbicidal effect by foliage application, P: chickweed (chickweed) | Herbicidal effect by foliage application, H: barnyard grass (barnyard grass) | Herbicidal effect by soil treatment, K: Italian ryegrass (Italian ryegrass [1]) | Herbicidal effect by foliage application, M: velvetleaf (velvetleaf [2]) | Herbicidal effect by soil treatment, I: wild oat (wild oat) | Herbicidal effect by foliage application, K: Italian ryegrass (Italian ryegrass [3]) | Herbicidal effect by soil treatment, R: persian speedwell (persian speedwell) | Herbicidal effect by soil treatment, G: green foxtail (green foxtail) | herbicidal effect rating, B: Japanese bulrush (Japanese bulrush) | herbicidal effect on rice flat sedge (E) (rice flat sedge) | Herbicidal effect by soil treatment, N: redroot pigweed (redroot pigweed) | Herbicidal effect, C: oval-leafed pondweed (oval-leafed pondweed) | herbicidal effect on Chinese sprangletop (D) (Chinese sprangletop) | Herbicidal effect by soil treatment, L: windgrass (windgrass) | Herbicidal effect by foliage application, J: blackgrass (blackgrass) | Herbicidal effect by soil treatment, M: velvetleaf (velvetleaf [4]) | Herbicidal effect by soil treatment, O: lambsquarters (lambsquarters) | K: Italian ryegrass, herbicidal effect grade (Italian ryegrass [1]) | I: wild oat, herbicidal effect grade (wild oat) | R: persian speedwell, herbicidal effect grade (persian speedwell) | other results
1 | COc1ccc(-c2sc3c(C)cccc3c2-c2c(O)c(C)nn(C)c2=O)cc1 [4-110] | 5 (Herbicidal rate of 90% or more (almost completely withered)) | 2 (Herbicidal rate of 20% or more and less than 40%) | 5 (Herbicidal rate of 90% or more (almost completely withered)) | 5 (Herbicidal rate of 90% or more (almost completely withered)) | 0 (Herbicidal rate of 5% or less (almost no effect)) | 5 (Herbicidal rate of 90% or more (almost completely withered)) | 4 (Herbicidal rate of 70% or more and less than 90%) | 0 (Herbicidal rate of 5% or less (almost no effect)) | 3 (Herbicidal rate of 40% or more and less than 70%) | 5 (Herbicidal rate of 90% or more (almost completely withered)) | 5 (Herbicidal rate of 90% or more (almost completely withered)) | 4 (Herbicidal rate of 70% or more and less than 90%) | 0 (Herbicidal rate of 5% or less (almost no effect)) | 0 (Herbicidal rate of 5% or less (almost no effect)) | 4 (Herbicidal rate of 70% or more and less than 90%) | 3 (Herbicidal rate of 40% or more and less than 70%) | 5 (Herbicidal rate of 90% or more (almost completely withered)) | – | – | – | –
2 | CCSc1ccc(-c2sc3c(C)cccc3c2-c2c(O)c(C)nn(C)c2=O)cc1 [4-124] | 5 (Herbicidal rate of 90% or more (almost completely withered)) | 5 (Herbicidal rate of 90% or more (almost completely withered)) | 4 (Herbicidal rate of 70% or more and less than 90%) | 5 (Herbicidal rate of 90% or more (almost completely withered)) | 0 (Herbicidal rate of 5% or less (almost no effect)) | 5 (Herbicidal rate of 90% or more (almost completely withered)) | 4 (Herbicidal rate of 70% or more and less than 90%) | 5 (Herbicidal rate of 90% or more (almost completely withered)) | 0 (Herbicidal rate of 5% or less (almost no effect)) | 5 (Herbicidal rate of 90% or more (almost completely withered)) | 5 (Herbicidal rate of 90% or more (almost completely withered)) | 2 (Herbicidal rate of 20% or more and less than 40%) | 3 (Herbicidal rate of 40% or more and less than 70%) | 0 (Herbicidal rate of 5% or less (almost no effect)) | 5 (Herbicidal rate of 90% or more (almost completely withered)) | 3 (Herbicidal rate of 40% or more and less than 70%) | 5 (Herbicidal rate of 90% or more (almost completely withered)) | – | – | – | –
3 | CCCC(=O)Oc1c(C)nn(C)c(=O)c1-c1c(-c2ccccc2OC)sc2cc(F)c(F)cc12 [5-012] | 5 (Herbicidal rate of 90% or more (almost completely withered)) | 2 (Herbicidal rate of 20% or more and less than 40%) | – | 3 (Herbicidal rate of 40% or more and less than 70%) | – | 0 (Herbicidal rate of 5% or less (almost no effect)) | – | – | 2 (Herbicidal rate of 20% or more and less than 40%) | 3 (Herbicidal rate of 40% or more and less than 70%) | – | 2 (Herbicidal rate of 20% or more and less than 40%) | 2 (Herbicidal rate of 20% or more and less than 40%) | – | 4 (Herbicidal rate of 70% or more and less than 90%) | – | – | 0 (Herbicidal rate of 5% or less (almost no effect)) | 3 (Herbicidal rate of 40% or more and less than 70%) | 3 (Herbicidal rate of 40% or more and less than 70%) | G: green foxtail, herbicidal effect grade (green foxtail): 3 (Herbicidal rate of 40% or more and less than 70%); N: redroot pigweed, herbicidal effect grade (redroot pigweed): 5 (Herbicidal rate of 90% or more (almost completely withered)); L: windgrass, herbicidal effect grade (windgrass): 3 (Herbicidal rate of 40% or more and less than 70%); M: velvetleaf, herbicidal effect grade (velvetleaf [4]): 3 (Herbicidal rate of 40% or more and less than 70%); O: lambsquarters, herbicidal effect grade (lambsquarters): 5 (Herbicidal rate of 90% or more (almost completely withered))
4 | COc1ccc(-c2sc3cc(Cl)c(Cl)cc3c2-c2c(O)c(C)nn(C)c2=O)cc1 [5-043] | 5 (Herbicidal rate of 90% or more (almost completely withered)) | 0 (Herbicidal rate of 5% or less (almost no effect)) | – | 4 (Herbicidal rate of 70% or more and less than 90%) | – | 0 (Herbicidal rate of 5% or less (almost no effect)) | – | – | 0 (Herbicidal rate of 5% or less (almost no effect)) | 4 (Herbicidal rate of 70% or more and less than 90%) | – | 0 (Herbicidal rate of 5% or less (almost no effect)) | 3 (Herbicidal rate of 40% or more and less than 70%) | – | 0 (Herbicidal rate of 5% or less (almost no effect)) | – | – | 0 (Herbicidal rate of 5% or less (almost no effect)) | 0 (Herbicidal rate of 5% or less (almost no effect)) | 0 (Herbicidal rate of 5% or less (almost no effect)) | G: green foxtail, herbicidal effect grade (green foxtail): 0 (Herbicidal rate of 5% or less (almost no effect)); N: redroot pigweed, herbicidal effect grade (redroot pigweed): 0 (Herbicidal rate of 5% or less (almost no effect)); L: windgrass, herbicidal effect grade (windgrass): 0 (Herbicidal rate of 5% or less (almost no effect)); M: velvetleaf, herbicidal effect grade (velvetleaf [4]): 0 (Herbicidal rate of 5% or less (almost no effect)); O: lambsquarters, herbicidal effect grade (lambsquarters): 0 (Herbicidal rate of 5% or less (almost no effect))

Reference: patent US20230085307A1, “PYRIDAZINONE COMPOUND AND HERBICIDE” (NISSAN CHEMICAL CORPORATION, priority 2019, published 2023)
